Laboratory results taken from patent publication US8106055B2, “Substituted amide compounds” (Gruenenthal GmbH, priority 2007, dated 2012).
Like-named read-outs stand apart in the source and are kept apart here.

Key:
human μ opiate receptor = target: T1, human μ opiate receptor (Homo sapiens, UniProt P35372); experiment: Affinity for the human μ opiate receptor ([3H]-naloxone displacement, CHO-K1 receptor membrane preparation, SPA); format: binding; details: 1.5 h, Table 2; test concentration 1 μM; read-out: μ receptor
T1 construct: purchased PerkinElmer Life Sciences, Zaventem, Belgium RB-HOM; host or cells: CHO-K1 cells (membrane preparation)
T1 sequence (P35372 whole entry): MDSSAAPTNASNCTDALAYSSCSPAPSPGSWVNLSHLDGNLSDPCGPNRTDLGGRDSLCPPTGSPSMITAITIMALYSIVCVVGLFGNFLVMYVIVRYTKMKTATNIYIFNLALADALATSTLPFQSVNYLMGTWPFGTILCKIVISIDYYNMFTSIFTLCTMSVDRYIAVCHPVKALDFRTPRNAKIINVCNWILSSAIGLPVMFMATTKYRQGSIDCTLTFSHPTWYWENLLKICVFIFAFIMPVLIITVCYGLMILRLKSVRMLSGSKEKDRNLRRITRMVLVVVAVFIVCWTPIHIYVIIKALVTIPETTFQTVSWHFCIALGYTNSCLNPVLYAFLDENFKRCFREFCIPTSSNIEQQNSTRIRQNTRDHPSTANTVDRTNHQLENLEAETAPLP
Procedure: Binding data of the compounds on the μ opioid receptor and data on the inhibition of reuptake of serotonin (5-HT) are given in Table 1. The data for the μ receptor were measured at a test concentration of 1 μM, and those for the serotonin reuptake at 10 μM. The values are stated in % inhibition.
Investigation of the Activity of the Compounds of the Invention Method for Determining the Affinity for the Human μ Opiate Receptor
The receptor affinity for the human p opiate receptor is determined in a homogeneous set-up in microtitre plates. For this, dilution series of the substances to be tested are incubated with a receptor membrane preparation (15-40 μg of protein/250 μl of incubation batch) of CHO-K1 cells which express the human p opiate receptor (RB-HOM receptor membrane preparation from PerkinElmer Life Sciences, Zaventem, Belgium) in the presence of 1 nmol/l of the radioactive ligand [^3H]-naloxone (NET719, PerkinElmer Life Sciences, Zaventem, Belgium) and 1 mg of WGA-SPA-Beads (wheat germ agglutinin SPA beads from Amersham/Pharmacia, Freiburg, Germany) in a total volume of 250 μl for 90 minutes at room temperature. 50 mmol/l of Tris-HCl supplemented with 0.06% of bovine serum albumin is used as the incubation buffer. 100 μmol/l of naloxone are additionally added for determination of the non-specific binding. After the end of the ninety-minute incubation time, the microtitre plates are centrifuged for 20 minutes at 1,000 g and the radioactivity is measured in a β-counter (Microbeta-Trilux, PerkinElmer Wallac, Freiburg, Germany). The percentage displacement of the radioactive ligand from its binding to the human p opiate receptor is determined at a concentration of the test substances of 1 μmol/l and stated as the percentage inhibition of the specific binding. Starting from the percentage displacement by various concentrations of the test substances, IC50 inhibitory concentrations which cause a 50 percent displacement of the radioactive ligand are calculated. By conversion by means of the Cheng-Prusoff relationship, Ki values for the test substances are obtained.

[1] = target: T2, bradykinin 1 receptor (B1R) of the rat (Rattus norvegicus, UniProt P97583); experiment: Functional investigation on the rat bradykinin 1 receptor (B1R), Ca2+ FLIPR assay in CHO K1 rB1R cells; format: cell-based
T2 construct: expressed in transfected cells; host or cells: CHO K1 cells
T2 sequence (P97583 1-337): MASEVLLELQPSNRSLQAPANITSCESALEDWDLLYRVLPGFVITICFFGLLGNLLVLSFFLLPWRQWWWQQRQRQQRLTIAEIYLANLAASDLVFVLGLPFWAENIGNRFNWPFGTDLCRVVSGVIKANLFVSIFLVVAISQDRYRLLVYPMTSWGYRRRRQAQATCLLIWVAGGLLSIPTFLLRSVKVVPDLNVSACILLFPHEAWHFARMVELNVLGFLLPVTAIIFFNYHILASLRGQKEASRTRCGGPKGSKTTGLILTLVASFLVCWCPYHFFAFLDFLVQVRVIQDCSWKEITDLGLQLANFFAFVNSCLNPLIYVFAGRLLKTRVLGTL
Method in brief: (§1)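 Fluo-4 Ca2+ readout, peak fluorescence. Stable CHO K1 transfectants; compound pre-incubated 10-20 min, then EC80 agonist—Lys-Des-Arg9-BK for hB1R, Des-Arg9-BK for rB1R. % inhibition vs maximal inhibition; IC50 from multiple concentrations, duplicate/triplicate, ≥2 independent runs.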

[2] = target: T3, human bradykinin 1 receptor (B1R) (Homo sapiens, UniProt P46663); experiment: Functional investigation on the human bradykinin 1 receptor (B1R), Ca2+ FLIPR assay in CHO K1 hB1R cells; format: cell-based; details: for B1R Ant. h [10 μM] % Inhibition: B1R antagonism human
T3 construct: expressed in transfected cells; host or cells: CHO K1 cells
T3 sequence (P46663 1-353): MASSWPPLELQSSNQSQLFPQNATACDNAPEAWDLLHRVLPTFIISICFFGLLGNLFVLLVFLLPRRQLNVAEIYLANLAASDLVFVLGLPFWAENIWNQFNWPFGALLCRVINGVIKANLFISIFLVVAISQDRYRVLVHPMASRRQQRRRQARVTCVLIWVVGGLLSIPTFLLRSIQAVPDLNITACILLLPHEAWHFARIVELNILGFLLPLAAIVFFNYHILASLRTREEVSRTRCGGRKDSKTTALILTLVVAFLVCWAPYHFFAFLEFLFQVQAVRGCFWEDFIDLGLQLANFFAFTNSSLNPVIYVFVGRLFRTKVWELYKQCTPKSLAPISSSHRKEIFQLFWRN
Method in brief: as §1

[3] = test substance 10 μM, Ca2+ FLIPR, CHO K1 hB1R cells
[4] = CHO-K1, B1R antagonism rat, test substance 10 μM, Ca2+ FLIPR, CHO K1 rB1R cells, read-out: B1R Ant. r [10 μM] % Inhibition
[5] = CHO-K1, B1R antagonism human, test substance 10 μM, Ca2+ FLIPR, CHO K1 hB1R cells, read-out: B1R Ant. h [10 μM] % Inhibition
[6] = CHO-K1, read-out: B1R Ant. r [10 μM] % Inhibition
[7] = CHO-K1, read-out: B1R Ant. h [10 μM] % Inhibition

Compound | inhibition at 1 µM (human μ opiate receptor) [%] | B1R Ant. r [10 μM] % Inhibition ([1]; B1R antagonism rat, test substance 10 μM, Ca2+ FLIPR, CHO K1 rB1R cells) [%] | B1R Ant. h [10 μM] % Inhibition [2, 3] [%] | inhibition at 10 µM [1, 4] [%] | inhibition at 10 µM [2, 5] [%] | inhibition at 10 µM [1, 6] [%] | inhibition at 10 µM [2, 7] [%]
COc1cc(C)c(S(=O)(=O)N(C)CCOCC(=O)NC2CCC(C(c3ccccc3)N(C)C)CC2)c(C)c1C (centres unmarked) [Example 597, N-[4-(dimethylaminophenylmethyl)-cyclohexyl]-2-{2-[(4-methoxy-2,3,6-trimethylbenzenesulfonyl)-methylamino]-ethoxy}-acetamide] | 87 | −22 | 72 |  |  |  | 
CN(C)C(Cc1ccccc1)C1CCC(NC(=O)COCCN(C)S(=O)(=O)c2c(Cl)cc(Cl)cc2Cl)CC1 (centres unmarked) [Example 616, N-[4-(1-dimethylamino-2-phenylethyl)-cyclohexyl]-2-{2-[methyl-(2,4,6-trichlorobenzenesulfonyl)-amino]-ethoxy}-acetamide] | 64 |  |  | 43 | 100 |  | 
COc1cc(C)c(S(=O)(=O)N(C)CCOCC(=O)NC2CCC(C(c3ccccc3)N3CCCCC3)CC2)c(C)c1C (centres unmarked) [Example 617, 2-{2-[(4-methoxy-2,3,6-trimethylbenzenesulfonyl)-methylamino]-ethoxy}-N-[4-(phenylpiperidin-1-yl-methyl)-cyclohexyl]-acetamide] | 29 |  |  | 48 | 86 |  | 
COc1cc(C)c(S(=O)(=O)N(C)CCOCC(=O)NC2CCC(C(c3ccccc3)N3CCCC3)CC2)c(C)c1C (centres unmarked) [Example 618, 2-{2-[(4-methoxy-2,3,6-trimethylbenzenesulfonyl)-methylamino]-ethoxy}-N-[4-(phenylpyrrolidin-1-yl-methyl)-cyclohexyl]-acetamide] | 43 |  |  | 3 | 95 |  | 
COc1cc(C)c(S(=O)(=O)N(C)CCOCC(=O)NC2CCC(C(c3ccccc3)N3CCOCC3)CC2)c(C)c1C (centres unmarked) [Example 619, 2-{2-[(4-methoxy-2,3,6-trimethylbenzenesulfonyl)-methylamino]-ethoxy}-N-[4-(morpholin-4-yl-phenylmethyl)-cyclohexyl]-acetamide] | -11 |  |  | 12 | 56 |  | 
CN(C)C(c1ccccc1)C1CCC(NC(=O)CCOCN(C)S(=O)(=O)c2c(Cl)cc(Cl)cc2Cl)CC1 (centres unmarked) [Example 620, N-[4-(dimethylaminophenylmethyl)-cyclohexyl]-3-{[methyl-(2,4,6-trichlorobenzenesulfonyl)-amino]-methoxy}-propionamide] | 92 |  |  | 73 | 103 |  | 
CN(C)C(c1ccccc1)C1CCC(CNC(=O)COC2CCCN(S(=O)(=O)c3c(Cl)cc(Cl)cc3Cl)C2)CC1 (centres unmarked) [Example 621, N-[4-(dimethylaminophenylmethyl)-cyclohexylmethyl]-2-[1-(2,4,6-trichlorobenzenesulfonyl)-piperidin-3-yloxy]-acetamide] | 90 |  |  | 0 | 88 |  | 
CN(C)C(c1ccccc1)C1CCC(CNC(=O)COCC2CCCN2S(=O)(=O)c2c(Cl)cc(Cl)cc2Cl)CC1 (centres unmarked) [Example 622, N-[4-(dimethylaminophenylmethyl)-cyclohexylmethyl]-2-[1-(2,4,6-trichlorobenzenesulfonyl)-pyrrolidin-2-ylmethoxy]-acetamide] | 96 |  |  | 68 | 106 |  | 
COc1cc(C)c(S(=O)(=O)N(C)CCOCC(=O)NCC2CCC(C(c3ccccc3)N(C)C)CC2)c(C)c1C (centres unmarked) [Example 623, N-[4-(dimethylaminophenylmethyl)-cyclohexylmethyl]-2-{2-[(4-methoxy-2,3,6-trimethylbenzenesulfonyl)-methylamino]-ethoxy}-acetamide] | 93 |  | 84 | 41 |  |  | 
CN(C)C(c1ccccc1)C1CCC(CNC(=O)CCOCN(C)S(=O)(=O)c2c(Cl)cc(Cl)cc2Cl)CC1 (centres unmarked) [Example 624, N-[4-(dimethylaminophenylmethyl)-cyclohexylmethyl]-3-{[methyl-(2,4,6-trichlorobenzenesulfonyl)-amino]-methoxy}-propionamide] | 98 |  |  | 81 | 104 |  | 
COc1ccccc1-c1noc(C(=O)NCC(=O)NCC2CCC(C(c3cccc(F)c3)N(C)C)CC2)n1 (centres unmarked) [Example 787, 3-(2-methoxy-phenyl)-[1,2,4]oxadiazole-5-carboxylic acid [({4-[dimethylamino-(3-fluoro-phenyl)-methyl]-cyclohexylmethyl}-carbamoyl)-methyl]-amide] |  |  |  | 11 | 19 |  | 
CN(C)C(CCc1ccccc1)C1CCC(NC(=O)CCNC(=O)c2nc(-c3ccc(Cl)cc3Cl)no2)CC1 (centres unmarked) [Example 788, 3-(2,4-dichloro-phenyl)-[1,2,4]oxadiazole-5-carboxylic acid {2-[4-(1-dimethylamino-3-phenyl-propyl)-cyclohexylcarbamoyl]-ethyl}-amide] |  |  |  | 11 | 90 |  | 
COc1ccc(-c2noc(C(=O)NCCC(=O)NC3CCC(C(CCc4ccccc4)N(C)C)CC3)n2)cc1OC (centres unmarked) [Example 789, 3-(3,4-dimethoxy-phenyl)-[1,2,4]oxadiazole-5-carboxylic acid {2-[4-(1-dimethylamino-3-phenyl-propyl)-cyclohexylcarbamoyl]-ethyl}-amide] |  |  |  | -6 | -11 |  | 
CN(C)C(CCc1ccccc1)C1CCC(NC(=O)CNC(=O)c2nc(-c3cc(Cl)cc(Cl)c3)no2)CC1 (centres unmarked) [Example 790, 3-(3,5-dichloro-phenyl)-[1,2,4]oxadiazole-5-carboxylic acid {[4-(1-dimethylamino-3-phenyl-propyl)-cyclohexylcarbamoyl]-methyl}-amide] |  |  |  | 11 | 35 |  | 
CN(C)C(CCc1ccccc1)C1CCC(NC(=O)CNC(=O)c2nc(-c3ccccn3)no2)CC1 (centres unmarked) [Example 791, 3-pyridin-2-yl-[1,2,4]oxadiazole-5-carboxylic acid {[4-(1-dimethylamino-3-phenyl-propyl)-cyclohexylcarbamoyl]-methyl}-amide] |  |  |  |  |  | 16 | -3
CN(C)C(CCc1ccccc1)C1CCC(NC(=O)CCNC(=O)c2nc(-c3ccc4c(c3)OCO4)no2)CC1 (centres unmarked) [Example 792, 3-benzo[1,3]dioxol-5-yl-[1,2,4]oxadiazole-5-carboxylic acid {2-[4-(1-dimethylamino-3-phenyl-propyl)-cyclohexylcarbamoyl]-ethyl}-amide] |  |  |  |  |  | 2 | 9
CN(C)C(CCc1ccccc1)C1CCC(NC(=O)CNC(=O)c2nc(-c3c(Cl)cccc3Cl)no2)CC1 (centres unmarked) [Example 793, 3-(2,6-dichloro-phenyl)-[1,2,4]oxadiazole-5-carboxylic acid {[4-(1-dimethylamino-3-phenyl-propyl)-cyclohexylcarbamoyl]-methyl}-amide] |  |  |  | 6 | 104 |  | 
